Experimental data: publication PMC12541710, “Design, synthesis, and anticancer evaluation of novel pyrazole–thiophene hybrid derivatives as multitarget inhibitors of wild EGFR, mutant (T790M) EGFR, and VEGFR-2” (RSC Advances, 2025)
Where two headings read alike, the source gives them in different places.

Experiments:
HepG2 [1] = test: MTT cytotoxicity assay, HepG2; details: Homo sapiens, HepG2, 24 h, read-out: In vitro Cytotoxicity (IC50, μM) HepG2
Source text: (§1) Two human cancer cell lines, HepG2 (human hepatocellular carcinoma) and MCF-7 (human breast adenocarcinoma), were used to test the produced compounds' cytotoxic activities. […] HepG2 cells, a hepatocellular carcinoma model, are widely used for studying VEGF/VEGFR-2-mediated angiogenesis and tumor progression.[76,77] Thus, these models provided a relevant system for assessing the potential EGFR/VEGFR inhibitory effects of our synthesized compounds. Accordingly, provide complementary systems for assessing the multitarget inhibitory potential of the synthesized pyrazole–thiophene hybrids against EGFR- and VEGFR-2-mediated oncogenic pathways. […] The cytotoxic activity of the synthesized pyrazole–thiophene derivatives was initially evaluated against two standard human cancer cell lines: MCF-7 and HepG2, which are widely used in cytotoxicity screening using the 3-(4,5-dimethylthiazol-2-yl)-2,5-diphenyltetrazolium bromide (MTT) assay (SI data, S1).[81–84] […]
(§2) S1. Analysis of Cytotoxic Inhibitory Concentration 50 (IC 50) with respect to HepG2 and MCF-7 The cytotoxic activity of the synthesized compounds was evaluated against MCF-7 and HepG2 cell lines using the 3-(4,5-dimethylthiazol-2-yl)-2,5-diphenyltetrazolium bromide (MTT) assay 2-5.
(§3) 100 µg/mL streptomycin, then seeded in 96 -well plates (1 × 10⁴ cells/well) and incubated at 37 °C with 5% CO₂ for 48 h. Test compounds, prepared by serial dilutio n, were added for 24 h, after which 20 µL of MTT solution (5 mg/mL) was introduced and incubated for 4 h. Formazan crystals were dissolved […]
(§4) Cell viability was ca lculated relative to untreated controls, and IC₅₀ values were obtained from dose – response curves by nonlinear regression. […]

MCF-7 [2] = test: MTT cytotoxicity assay, MCF-7; details: Homo sapiens, MCF7, 24 h, read-out: In vitro Cytotoxicity (IC50, μM) MCF-7
Source text: as §1, §2, §3, §4

wild-type EGFR = target: T1, wild-type EGFR (Homo sapiens, UniProt P00533); test: EGFR enzyme inhibition assay (wild type), Kinase-Glo kit; assay type: biochemical
T1 construct: purchased #40321
T1 sequence (P00533 25-1210): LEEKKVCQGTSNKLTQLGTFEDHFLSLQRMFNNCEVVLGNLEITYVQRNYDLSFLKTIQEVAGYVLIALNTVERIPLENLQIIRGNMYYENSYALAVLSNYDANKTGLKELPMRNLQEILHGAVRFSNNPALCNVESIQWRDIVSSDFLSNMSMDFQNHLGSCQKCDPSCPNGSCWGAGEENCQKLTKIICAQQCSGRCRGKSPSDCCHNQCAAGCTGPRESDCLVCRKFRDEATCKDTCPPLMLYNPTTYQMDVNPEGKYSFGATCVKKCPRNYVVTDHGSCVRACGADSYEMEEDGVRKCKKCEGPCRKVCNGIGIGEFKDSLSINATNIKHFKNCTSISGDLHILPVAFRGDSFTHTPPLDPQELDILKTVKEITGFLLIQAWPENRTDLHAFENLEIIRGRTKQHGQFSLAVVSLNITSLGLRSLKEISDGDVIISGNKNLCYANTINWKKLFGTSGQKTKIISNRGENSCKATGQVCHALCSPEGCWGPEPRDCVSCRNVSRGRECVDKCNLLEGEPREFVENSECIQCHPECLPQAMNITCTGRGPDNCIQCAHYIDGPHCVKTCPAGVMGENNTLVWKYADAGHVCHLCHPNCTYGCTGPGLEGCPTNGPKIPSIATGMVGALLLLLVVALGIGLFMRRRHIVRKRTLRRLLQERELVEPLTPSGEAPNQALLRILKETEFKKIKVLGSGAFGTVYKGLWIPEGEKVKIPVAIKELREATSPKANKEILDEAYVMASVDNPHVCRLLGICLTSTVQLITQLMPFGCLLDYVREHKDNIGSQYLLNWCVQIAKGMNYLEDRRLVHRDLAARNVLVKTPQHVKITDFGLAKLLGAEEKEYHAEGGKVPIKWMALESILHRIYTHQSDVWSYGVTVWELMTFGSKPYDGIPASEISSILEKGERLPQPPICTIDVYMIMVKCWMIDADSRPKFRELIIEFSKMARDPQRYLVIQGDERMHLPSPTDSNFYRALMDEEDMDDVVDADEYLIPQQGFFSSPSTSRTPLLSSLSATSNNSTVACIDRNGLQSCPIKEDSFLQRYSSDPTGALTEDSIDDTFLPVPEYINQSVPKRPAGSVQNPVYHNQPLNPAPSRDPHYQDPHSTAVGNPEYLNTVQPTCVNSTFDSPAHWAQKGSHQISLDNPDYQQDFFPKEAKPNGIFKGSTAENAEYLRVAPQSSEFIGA
Experimental: (§5) Supporting Information (SI)
(§6) Formazan crystals were dissolved
(§7) response curves by nonlinear regression.
(§8) performed in 96 -well plates containing purified recombinant EGFR. Each we ll received 25 µL of
(§9) control). […] The reaction was initiated
(§10) After incubation, 50 µL of
(§11) min. Luminescence was then recorded using a microplate ELISA reader. Erlotinib served as t he
(§12) incubated for 5 min at room temperature.

VEGFR-2 = target: T2, VEGFR-2 (Homo sapiens, UniProt P35968); test: VEGFR-2 enzyme inhibition assay (HTScan Tyrosine Kinase Assay); assay type: biochemical
T2 construct: purchased Cell Signaling Technology #7788
T2 sequence (P35968 789-1356 limits assumed): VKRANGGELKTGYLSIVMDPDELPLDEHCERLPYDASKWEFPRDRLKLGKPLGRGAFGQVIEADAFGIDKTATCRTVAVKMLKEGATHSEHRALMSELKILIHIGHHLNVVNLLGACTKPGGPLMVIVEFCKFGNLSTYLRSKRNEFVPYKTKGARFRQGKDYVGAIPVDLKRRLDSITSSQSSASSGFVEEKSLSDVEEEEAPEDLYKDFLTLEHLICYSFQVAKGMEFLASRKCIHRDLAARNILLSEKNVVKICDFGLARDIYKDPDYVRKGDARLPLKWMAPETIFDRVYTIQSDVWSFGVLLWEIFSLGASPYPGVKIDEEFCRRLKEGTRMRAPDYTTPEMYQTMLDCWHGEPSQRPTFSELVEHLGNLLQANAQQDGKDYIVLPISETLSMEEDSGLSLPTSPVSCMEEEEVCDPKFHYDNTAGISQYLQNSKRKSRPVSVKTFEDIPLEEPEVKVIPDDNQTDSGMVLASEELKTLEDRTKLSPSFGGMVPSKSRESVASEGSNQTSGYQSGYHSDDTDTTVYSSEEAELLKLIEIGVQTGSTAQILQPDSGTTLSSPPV

EGFR mutant (T790M) = target: T3, EGFR mutant (T790M) (Homo sapiens, UniProt P00533, T790M); test: EGFR enzyme inhibition assay (mutant T790M), Kinase-Glo kit; assay type: biochemical
T3 construct: purchased #40323
T3 sequence (P00533 25-1210 T790M): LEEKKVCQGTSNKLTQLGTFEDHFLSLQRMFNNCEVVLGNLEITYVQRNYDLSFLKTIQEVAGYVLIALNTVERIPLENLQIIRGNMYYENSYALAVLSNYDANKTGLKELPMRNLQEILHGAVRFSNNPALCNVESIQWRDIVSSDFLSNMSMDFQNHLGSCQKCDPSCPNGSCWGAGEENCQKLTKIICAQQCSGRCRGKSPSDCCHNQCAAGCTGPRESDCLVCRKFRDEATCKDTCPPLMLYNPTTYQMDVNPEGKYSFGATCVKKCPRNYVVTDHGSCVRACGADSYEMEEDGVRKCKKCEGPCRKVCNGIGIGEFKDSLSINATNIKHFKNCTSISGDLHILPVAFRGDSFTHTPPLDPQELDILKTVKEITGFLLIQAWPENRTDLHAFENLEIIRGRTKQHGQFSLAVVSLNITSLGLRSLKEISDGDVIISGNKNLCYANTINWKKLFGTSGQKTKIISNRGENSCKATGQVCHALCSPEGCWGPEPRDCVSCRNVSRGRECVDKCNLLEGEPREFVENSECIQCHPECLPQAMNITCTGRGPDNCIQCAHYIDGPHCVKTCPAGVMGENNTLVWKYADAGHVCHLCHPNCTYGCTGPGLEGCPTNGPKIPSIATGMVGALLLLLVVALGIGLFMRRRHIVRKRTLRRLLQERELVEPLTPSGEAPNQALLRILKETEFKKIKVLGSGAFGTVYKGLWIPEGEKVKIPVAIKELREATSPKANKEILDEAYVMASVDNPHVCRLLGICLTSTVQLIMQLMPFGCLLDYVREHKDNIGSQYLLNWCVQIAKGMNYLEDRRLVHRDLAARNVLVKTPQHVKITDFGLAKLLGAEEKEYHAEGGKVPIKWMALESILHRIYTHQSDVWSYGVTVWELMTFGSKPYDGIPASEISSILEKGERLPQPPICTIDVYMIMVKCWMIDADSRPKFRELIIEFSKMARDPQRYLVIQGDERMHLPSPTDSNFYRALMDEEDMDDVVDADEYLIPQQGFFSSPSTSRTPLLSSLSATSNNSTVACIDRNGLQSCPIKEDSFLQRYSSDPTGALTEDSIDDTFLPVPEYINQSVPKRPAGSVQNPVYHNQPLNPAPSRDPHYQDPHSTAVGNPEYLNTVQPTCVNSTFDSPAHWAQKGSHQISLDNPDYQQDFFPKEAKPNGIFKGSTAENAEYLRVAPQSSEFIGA
Experimental: as §5, §6, §7, §8, §9, §10, §11, §12

MCF-7 cells [3] = test: Annexin V-FITC/PI apoptosis and necrosis assay; assay type: cell-based, human; details: MCF-7, 10 µM, 48 h
Experimental: Flow cytometric assay and the pro-apoptotic activity of compound 14 were assessed using the Annexin V-FITC Apoptosis Detection Kit (BioVision, USA; Cat. No. K101-25). The assay of compound 14 was performed in accordance with the reported procedure,[87,88] (SI data, S3). […]
The pro-apoptotic activity of compound 14 was assessed using the Annexin V -FITC Apoptosis Detection Kit (BioVision, USA; Cat. No. K101 -25) according to the manufacturer’s instructions.
MCF-7 cells (1–5 × 10⁵) were seeded and treated with 10 µM of 14 for 48 h. After treatment, both floating and adherent cells were collected by gentle trypsinization, washed with serum -containing medium, and resuspended in 500 µL of 1× Binding Buffer. Each sample was stained with 5 µL Annexin V-FITC and 5 µL propidium iodide (50 µg/mL) for 5 min at room temperature in the dark, then analyzed by flow cytometry. […]

MCF-7 cells [4] = test: Cell cycle analysis by PI flow cytometry; assay type: cell-based, human; details: MCF-7, 10 µM, 48 h
Experimental: S3. Assessment of the Impact of Compound 14 on Cell Cycle Progression and Apoptosis in MCF - […]
MCF-7 breast cancer cells were seeded under standard culture conditions and treated with 10 µM of compound 14 for 48 h. After treatment, cells were harvested by trypsinization, washed with PBS, and fixed in ice-cold 66% ethanol at 4 °C for at least 2 h. Prior to analysis, cells were washed again with PBS and stained using the Propidium Iodide Flow Cytometry Kit ( ab139418, Abcam, UK) according to the manufacturer’s instructions. Staining was carried out with PI and RNase at 37 °C in the dark for 30 min. Cell cycle distribution (G0/G1, S, and G2/M phases) was then determined by measuring PI fluorescence intensity in the FL2 channel 8. […]

MCF-7 [5] = details: reference drug value; read-out: In vitro Cytotoxicity (IC50, μM) MCF-7; cited from earlier work
HepG2 [6] = details: reference drug value; read-out: In vitro Cytotoxicity (IC50, μM) HepG2; cited from earlier work
[7] = tested on: human pancreatic tumor (AsPC-1) and human glioblastoma (U251); set-up: method as in PMID 26492233; details: read-out: IC50 against AsPC-1 and U251; cited from earlier work

Row | SMILES | IC50 (HepG2 [1]) | IC50 (MCF-7 [2]) | also measured
1 | O=C(C=Cc1cccs1)c1ccc([N+](=O)[O-])cc1 [Compound 1, 1-(4-nitrophenyl)-3-(thiophen-2-yl)prop-2-en-1-one] | 90.5 µM | > 100 µM | –
2 | O=[N+]([O-])c1ccc(C2=NNC(c3cccs3)C2)cc1 (stereo not drawn) [Compound 2, 3-(4-nitrophenyl)-5-(thiophen-2-yl)-4,5-dihydro-1H-pyrazole] | 8.86 µM | 6.57 µM | IC50 (wild-type EGFR): 59.5 µM; IC50 (VEGFR-2): 889 µM; IC50 (EGFR mutant (T790M)): 65.1 µM
3 | CC(=O)N1N=C(c2ccc([N+](=O)[O-])cc2)CC1c1cccs1 (stereo not drawn) [Compound 3, 1-(3-(4-nitrophenyl)-5-(thiophen-2-yl)-4,5-dihydro-1H-pyrazol-1-yl) ethan-1-one] | 53.2 µM | 43.6 µM | –
4 | O=CN1N=C(c2ccc([N+](=O)[O-])cc2)CC1c1cccs1 (stereo not drawn) [Compound 4, 3-(4-nitrophenyl)-5-(thiophen-2-yl)-4,5-dihydro-1H-pyrazole-1-carbaldehyde] | 84 µM | 92.1 µM | –
5 | O=[N+]([O-])c1ccc(C2=Nc3ccccc3NC(c3cccs3)C2)cc1 (stereo not drawn) [Compound 5, 4-(4-nitrophenyl)-2-(thiophen-2-yl)-2,3-dihydro-1H-benzo[b][1,4] diazepine] | 62.6 µM | 75.5 µM | –
6 | N#Cc1c(-c2cccs2)cc(-c2ccc([N+](=O)[O-])cc2)[nH]c1=O [Compound 6, 6-(4-nitrophenyl)-2-oxo-4-(thiophen-2-yl)-1,2-dihydropyridine-3-carbonitrile] | 28.9 µM | 23.3 µM | –
7 | O=C(CCl)N1N=C(c2ccc([N+](=O)[O-])cc2)CC1c1cccs1 (stereo not drawn) [Compound 7, 2-chloro-1-(3-(4-nitrophenyl)-5-(thiophen-2-yl)-4,5-dihydro-1H-pyrazol-1-yl)ethan-1-one] | 78.1 µM | 75 µM | –
8 | O=C(O)c1ccccc1C(=O)N1N=C(c2ccc([N+](=O)[O-])cc2)CC1c1cccs1 (stereo not drawn) [Compound 8, 2-(3-(4-nitrophenyl)-5-(thiophen-2-yl)-4,5-dihydro-1H-pyrazole-1-carbonyl)benzoic acid] | 13.5 µM | 8.08 µM | IC50 (wild-type EGFR): 66.6 µM; IC50 (VEGFR-2): 85.1 µM; IC50 (EGFR mutant (T790M)): 121 µM
9 | O=C(O)CCC(=O)N1N=C(c2ccc([N+](=O)[O-])cc2)CC1c1cccs1 (stereo not drawn) [Compound 9, 4-(3-(4-nitrophenyl)-5-(thiophen-2-yl)-4,5-dihydro-1H-pyrazol-1-yl)-4-oxobutanoic acid] | 22.6 µM | 17.8 µM | –
10 | O=C(O)C=CC(=O)N1N=C(c2ccc([N+](=O)[O-])cc2)CC1c1cccs1 (stereo not drawn) [Compound 10, 4-(3-(4-nitrophenyl)-5-(thiophen-2-yl)-4,5-dihydro-1H-pyrazol-1-yl)-4-oxobut-2-enoic acid] | 36.4 µM | 32.6 µM | –
11 | O=[N+]([O-])c1ccc(C2=NN(CN3N=C(c4ccc([N+](=O)[O-])cc4)CC3c3cccs3)C(c3cccs3)C2)cc1 (stereo not drawn) [Compound 11, bis(3-(4-nitrophenyl)-5-(thiophen-2-yl)-4,5-dihydro-1H-pyrazol-1-yl)methane] | 74.2 µM | 87.4 µM | –
12 | COC(=O)/C=C(\C(=O)OC)N1N=C(c2ccc([N+](=O)[O-])cc2)CC1c1cccs1 (stereo not drawn) [Compound 12, dimethyl 2-(3-(4-nitrophenyl)-5-(thiophen-2-yl)-4,5-dihydro-1H-pyrazol-1-yl)maleate] | 59.3 µM | 51.7 µM | –
13 | O=C(O)n1nc(-c2ccc([N+](=O)[O-])cc2)cc1-c1cccs1 [Compound 13, 3-(4-nitrophenyl)-5-(thiophen-2-yl)-1H-pyrazole-1-carboxylic acid] | 41.4 µM | 37.1 µM | –
14 | CC(=O)C1C(c2ccc([N+](=O)[O-])cc2)=NN(C=O)C1c1cccs1 (stereo not drawn) [Compound 14, 4-Acetyl-3-(4-nitrophenyl)-5-(thiophen-2-yl)-4,5-dihydro-1H-pyrazole-1-carbaldehyde] | 19.6 µM | 12.9 µM | IC50 (wild-type EGFR): 47.6 µM; IC50 (VEGFR-2): 327 µM; Apoptosis Late (MCF-7 cells [3]; control 0.14%): 7.1%; Apoptosis Early (MCF-7 cells [3]; control 0.69%): 15.02%; Necrosis (MCF-7 cells [3]; control 2.36%): 4.2%; Cell cycle analysis Comment (MCF-7 cells [4]): Cell cycle arrest at G1phase; Cell cycle analysis %G2/M (MCF-7 cells [4]; control 16.74%): 6.62%; Cell cycle analysis %S (MCF-7 cells [4]; control 27.95%): 19.22%; Cell cycle analysis %G0-G1 (MCF-7 cells [4]; control 55.31%): 74.16%; IC50 (EGFR mutant (T790M)): 48.3 µM
15 | COc1cccc2c1C(=O)c1c(O)c3c(c(O)c1C2=O)C[C@@](O)(C(=O)CO)C[C@@H]3O[C@H]1C[C@H](N)[C@H](O)[C@H](C)O1 [Doxorubicin, doxorubicin, reference compound] | 4.5 µM | – | –
16 | C#Cc1cccc(Nc2ncnc3cc(OCCOC)c(OCCOC)cc23)c1 [Erlotinib, erlotinib] | – | – | IC50 (MCF-7 [5]): 8.2 µM; IC50 (HepG2 [6]): 7.73 µM
17 | Cc1ccc(-c2nnc(SCC(=O)N3N=C(c4cccs4)CC3c3ccc(Cl)cc3)o2)cc1 (stereo not drawn) [compound II] | – | – | IC50 [7]: 12 to 17 µM
